Data taken from patent US8409580B2, “Therapeutic vaccine targeted against P-glycoprotein 170 for inhibiting multidrug resistance in the treatment of cancers” (AC Immune SA, priority 2003, dated 2013).
Ends that are not written are not given here.

Legend:
[1] = tested on: P388R cells; details: mice, same cancer model, 100 mg/kg/day (Pierré et al. 1992); cited from earlier work
[2] = trials for treatment of multidrug resistance (Stupp et al. 1998); cited from earlier work
[3] = tested on: cancer cells; details: by means of an increase in the invasive potential of the cancer cells; cited from earlier work
[4] = tested on: mice; assay: Immunogenicity of di- and tetrapalmitoylated conjugates in liposomes: antibody detection by Dot Blot and antibody titer; format: in vivo
From the text: In order to further understand the degree of immunogenicity of the conjugates according to the invention, two types of conjugates were produced and tested. The first type of conjugate corresponds to the synthetic sequences of the peptides derived from the extracellular loops of the murine P-170 protein, covalently coupled to four molecules of fatty acid containing a carbon chain of between C12 and C24, per molecule of peptide. The second type of conjugate is made up of a peptide coupled only to two molecules of fatty acid. This study is illustrated by means of a specific example of dipalmitoylated and tetrapalmitoylated conjugates.
Table III describes the sequences of the di- and tetrapalmitoylated conjugates corresponding to loops 1, 2 and 4 of the murine P-170 protein and also their immunogenic capacity measured through the detection of antibodies by the Dot Blot technique and also the antibody titer by fluorescence units. […] The mpp4 and mpp2 conjugates engender an immune response with an antibody titer in the region of 400 fluorescence units. […] In fact, the synthesis of this loop is very hard and long since there are many possible chemical terminations, or chemical rebridging which could explain the lack of immune response of this first batch of peptides. For the animal immunization trials, a further synthesis of the peptides, in particular of loop 1, was therefore carried out.
The conjugates according to the invention serving as antigenic molecules, diluted in PBS, are firstly deposited at ambient temperature onto nitrocellulose membranes. After 30 minutes, these antigenic molecules are blocked with 3 ml of a solution containing PBS-5% skim milk. The membranes are incubated for 2 hours at ambient temperature, without washing, with 24 μl of murine serum prediluted volume-for-volume with PBS, in 2 ml of PBS containing 1% of skim milk and 0.1% of tween 20. Said murine serum was taken during a period of 15 to 45 days after the third immunization. After three washes in PBS-1% skim milk-0.1% tween 20, the membranes are sequentially incubated for 1 hour at ambient temperature, in 3 ml of PBS-1% skim milk-0.1% tween 20 containing the peroxydase anti-mouse secondary antibody diluted to 1/3000, and then after 2 washes, in 3 ml of PBS-1% skim milk-0.1% tween 20. The membranes are then washed once for 10 minutes in PBS alone and kept in a refrigerator at 4° C. overnight, in 500 μl of PBS. A chemoluminescence peroxydase substrate (ECL™ kit, […] Pharmacie Biotech) is deposited at the surface of the membranes (0.125 ml/cm^2), and left for one minute, and the membranes are then drained off and placed in a “cold” cassette between 2 films of Saran®. The membranes are immediately exposed by autoradiography, the emitted light resulting from the reaction of oxidation of the luminol by the peroxydase being collected on KODAK X-OMAT films with varying times from a few minutes to 1 hour, depending on the strength of the signal. The antibody titers are estimated using a densitometer suitable for the above system. The sensitivity of the chemoluminescence reaction has a threshold for detection of the induced antibodies evaluated at 0.2 ng/ml under the experimental conditions.

[5] = tested on: B6D2F1 mice; assay: Immune response in vivo in B6D2F1 mice immunized with the vaccine preparations (anti-mpp1, mpp2, mpp4 antibody isotypes, Dot Blot); details: further synthesis of the peptide; compared with mpp2 and mpp4
Protocol: The mice were immunized three times, two weeks apart, by intraperitoneal injection with 200 μl of vaccine composition. This experimental protocol is carried out for the four preparations on groups of nine B6D2F1 mice (Iffa Credo, L'Arbresle, France).
To quantify by Dot Blot the various immunoglobulins induced by the immunization, 100 μl of blood were taken, from each mouse, from the retroorbital sinus one day before the booster and 15 days after the final injection. Each blood sample was then centrifuged and the serum isolated was used for the quantification.
The conjugates according to the invention serving as antigenic molecules, diluted in PBS, are firstly deposited at ambient temperature onto nitrocellulose membranes. After 30 minutes, these antigenic molecules are blocked with 3 ml of a solution containing PBS-5% skim milk. The membranes are incubated for 2 hours at ambient temperature, without washing, with 24 μl of murine serum prediluted volume-for-volume with PBS, in 2 ml of PBS containing 1% of skim milk and 0.1% of tween 20. Said murine serum was taken during a period of 15 to 45 days after the third immunization. […] The sensitivity of the chemoluminescence reaction has a threshold for detection of the induced antibodies evaluated at 0.2 ng/ml under the experimental conditions. […]

[6] = mice injected with liposomes containing the conjugate, first peptide synthesis

## C=CCNc1nc(NCC=C)nc(N2CCC(NCC(c3ccc(F)cc3)c3ccc(F)cc3)CC2)n1 [S9788, 6-[4-[2,2-di-(4-fluorophenyl)ethylamino]-1-piperidinyl]-N,N′-di-2-propenyl-1,3,5-triazine-2,4-diamine]
[1]
  increase in survival: 49%
[2]
  toxicity limiting use in clinical trials: cardiac toxicity, ventricular arrhythmia and torsade de pointe

## OCCN1CCN(CC/C=C2\c3ccccc3Sc3ccc(C(F)(F)F)cc32)CC1 [trans-flupenthixol]
[3]
  effect on mortality: can accelerate mortality

## G-KVLTSFTNKELQAYAK-G-K-NH2 (GKVLTSFTNKELQAYAKGK-NH2; also: two palmitic acids; listed as Mus musculus) [mpp′2]
[4]; [6]
  Ac titer fluorescence: <10 fluorescence units

## G-SRDDDMETKRQNEN-G-K-NH2 (GSRDDDMETKRQNENGK-NH2; also: two palmitic acids; listed as Mus musculus) [mpp′4]
[4]; [6]
  Ac titer fluorescence: 100 fluorescence units
[4]; same sequence with two versus four palmityl residues
  antibody titer relative to the titer induced by mpp4: four times lower

## K-G-GNMTDSFTKAEASILPSITNQSGPNSTLIISNSSLEEE-G-K-K-NH2 (KGGNMTDSFTKAEASILPSITNQSGPNSTLIISNSSLEEEGKK-NH2; also: four palmitic acids; listed as Mus musculus) [mpp1]
[4]; [6]
  Ac titer fluorescence: <10 fluorescence units
  Detection of antibodies by Dot Blot: no antibody was detected
[5]
  antibody titers induced by the conjugate: significant and comparable in value to the antibody titers detected for the mpp2 and mpp4 conjugates
